Test results: ChEMBL document CHEMBL2375358, “Substituted thieno[2,3-d]pyrimidines as adenosine A2A receptor antagonists” (Bioorg Med Chem Lett, 2013)
Calls of active or inactive are those of the source. The rule behind the calls is not given here.

Columns and labels:
Adenosine receptor A2a = Adenosine receptor A2a (Homo sapiens, UniProt P29274); test: Antagonist activity at human adenosine A2a receptor expressed in CHOK1 cells assessed as inhibition of NECA/forskolin-induced cAMP accumulation incubated for 15 mins prior to NECA/forskolin challenge measured after 5.5 to 6 hrs by beta-galactosidase reporter gene assay; format: functional, cell-based, CHO-K1
Adenosine receptor A1 = molecular target: T1, Adenosine receptor A1 (Homo sapiens, UniProt P30542); test: Antagonist activity at human adenosine A1 receptor expressed in CHOK1 cells assessed as inhibition of R-PIA/forskolin-induced cAMP accumulation incubated for 15 mins prior to R-PIA/forskolin challenge measured after 5.5 to 6 hrs by beta-galactosidase reporter gene assay; format: functional, cell-based, CHO-K1
T1 sequence (P30542 whole entry): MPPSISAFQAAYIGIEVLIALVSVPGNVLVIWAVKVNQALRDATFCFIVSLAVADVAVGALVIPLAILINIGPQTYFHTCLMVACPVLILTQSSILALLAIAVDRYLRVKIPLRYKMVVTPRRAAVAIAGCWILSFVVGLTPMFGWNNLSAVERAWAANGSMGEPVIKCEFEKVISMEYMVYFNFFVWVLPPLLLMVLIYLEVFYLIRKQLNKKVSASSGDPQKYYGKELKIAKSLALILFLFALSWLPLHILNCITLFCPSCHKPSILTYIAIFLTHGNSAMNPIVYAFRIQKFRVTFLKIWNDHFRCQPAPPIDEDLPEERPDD

Mus musculus [1] = test: Antiparkinsonian activity in mouse assessed as reversal of haloperidol-induced catalepsy at 3 mg/kg, po after 1 hr; format: functional, organism-based; design: dose 3 mg/kg
Mus musculus [2] = test: Antiparkinsonian activity in po dosed mouse assessed as reversal of haloperidol-induced catalepsy after 1 hr; format: functional
Mus musculus [3] = test: Antiparkinsonian activity in mouse assessed as reversal of haloperidol-induced catalepsy at 10 mg/kg, po after 1 hr; format: functional, organism-based; design: dose 10 mg/kg
[4] = Oral bioavailability in mouse at 10 mg/kg; format: ADME, organism-based; conditions: in vivo
[5] = Cmax in rat at 10 mg/kg, po; format: ADME, organism-based; design: dose 10 mg/kg, route oral; conditions: in vivo
[6] = Clearance in rat at 2 mg/kg, iv and 10 mg/kg, po; format: ADME, organism-based; conditions: in vivo
[7] = Clearance in mouse at 5 mg/kg, iv and 10 mg/kg, po; format: ADME, organism-based; conditions: in vivo
[8] = Ratio of drug level in brain to plasma in rat at 2 mg/kg, iv and 10 mg/kg, po measured at 1 hr; format: ADME, organism-based; conditions: read-out: BPR
Mus musculus [9] = test: Antiparkinsonian activity in mouse assessed as reversal of haloperidol-induced catalepsy at 10 mg/kg, po after 2 to 4 hrs; format: functional, organism-based; design: dose 10 mg/kg
[10] = Cmax in mouse at 10 mg/kg, po; format: ADME, organism-based; design: dose 10 mg/kg, route oral; conditions: in vivo
[11] = Oral bioavailability in rat at 10 mg/kg; format: ADME, organism-based; conditions: in vivo
[12] = Half life in mouse at 10 mg/kg, po; format: ADME, organism-based; design: dose 10 mg/kg, route oral; conditions: in vivo
[13] = Half life in rat at 10 mg/kg, po; format: ADME, organism-based; design: dose 10 mg/kg, route oral; conditions: in vivo

Chain of Adenosine receptor A2a (P29274 whole entry): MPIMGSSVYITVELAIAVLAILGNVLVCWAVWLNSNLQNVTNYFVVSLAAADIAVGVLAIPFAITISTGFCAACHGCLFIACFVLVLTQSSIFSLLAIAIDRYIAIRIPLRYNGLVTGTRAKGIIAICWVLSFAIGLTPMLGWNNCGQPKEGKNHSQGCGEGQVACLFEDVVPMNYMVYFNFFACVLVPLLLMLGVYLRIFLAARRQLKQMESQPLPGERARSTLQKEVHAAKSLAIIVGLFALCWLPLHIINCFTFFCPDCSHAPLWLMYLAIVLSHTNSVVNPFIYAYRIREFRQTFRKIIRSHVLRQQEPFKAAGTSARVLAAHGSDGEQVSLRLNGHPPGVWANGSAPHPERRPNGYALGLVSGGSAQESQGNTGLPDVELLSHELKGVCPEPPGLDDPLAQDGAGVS

Row | Compound | Ki (Adenosine receptor A2a) | Ki (Adenosine receptor A1) | further results
1 | Cc1ccc(-c2nc(N)c3cc(Cc4ccccc4F)sc3n2)o1 | 0.0037 µM | < 0.016 µM | 
2 | Cc1ccc(-c2nc(N)c3cc(-c4ccccc4)sc3n2)o1 | 0.0673 µM | 0.52 µM | 
3 | N#Cc1cccc(-c2nc(N)c3cc(C4(c5ccccc5)CC4)sc3n2)c1 |  | > 0.61 µM | 
4 | C=C(c1ccccc1)c1cc2c(N)nc(-c3nc(C)cs3)nc2s1 |  | > 0.594 µM | 
5 | C=C(c1ccccc1)c1cc2c(N)nc(-c3cccc(C#N)c3)nc2s1 |  | > 1 µM | 
6 | Nc1nc(-c2ncccn2)nc2sc(Cc3ccccc3)cc12 | 0.0171 µM |  | 
7 | Nc1nc(-c2cccc(Cl)n2)nc2sc(Cc3ccccc3)cc12 | 0.173 µM | > 1 µM | 
8 | N#Cc1cccc(-c2nc(N)c3cc(Cc4ccccc4)sc3n2)n1 | 0.026 µM | > 1 µM | 
9 | N#Cc1cncc(-c2nc(N)c3cc(Cc4ccccc4)sc3n2)c1 | > 0.168 µM | 1.16 µM | 
10 | Nc1nc(-c2cccc(C(F)(F)F)c2)nc2sc(Cc3ccccc3)cc12 |  | > 1 µM | 
11 | Cc1csc(-c2nc(N)c3cc(Cc4ccccc4F)sc3n2)n1 | 0.0097 µM | 0.0286 µM | 
12 | Cc1csc(-c2nc(N)c3cc(Cc4ccccc4Cl)sc3n2)n1 | 0.0069 µM | 0.0496 µM | 
13 | N#Cc1cccc(-c2nc(N)c3cc(Cc4ccccc4F)sc3n2)c1 | 0.0073 µM | < 0.016 µM | 
14 | Cc1ccc(-c2nc(N)c3cc(Cc4ccccc4Cl)sc3n2)o1 | 0.0029 µM | 0.0261 µM | 
15 | CC(c1ccccc1)c1cc2c(N)nc(-c3cccc(C#N)c3)nc2s1 (configuration not stated) | 0.34 µM | 1.77 µM | 
16 | Nc1nc(-c2cnco2)nc2sc(Cc3ccccc3)cc12 | 0.009 µM | 0.106 µM | Activity (Mus musculus [1]): inactive
17 | Nc1nc(-c2ccccc2)nc2sc(CCc3ccccc3)cc12 | > 1 µM |  | 
18 | N#Cc1cccc(-c2nc(N)c3cc(Cc4ccccc4)sc3n2)c1 | 0.0114 µM | 0.222 µM | Activity (Mus musculus [1]): Active; ED50 (Mus musculus [2]): < 1 mg/kg

Row | Compound | Ki (Adenosine receptor A2a) | Ki (Adenosine receptor A1) | further results
19 | Nc1nc(-c2ccncc2)nc2sc(Cc3ccccc3)cc12 | 0.0673 µM | 0.812 µM | 
20 | Nc1nc(-c2ccccc2)nc2sc(Cc3ccccc3)cc12 | 0.0298 µM | 0.151 µM | 
21 | Cc1csc(-c2nc(N)c3cc(Cc4ccccc4)sc3n2)n1 |  |  | Activity (Mus musculus [3]): inactive
22 | Nc1nc(-c2ccccn2)nc2sc(Cc3ccccc3)cc12 | 0.594 µM | 3.71 µM | 
23 | N#Cc1cccc(-c2nc(N)c3cc(Cc4ccccc4Cl)sc3n2)c1 | 0.0014 µM | 0.0248 µM | 
24 | COc1ccccc1Cc1cc2c(N)nc(-c3ccc(C)o3)nc2s1 | 0.011 µM | 0.122 µM | Activity (Mus musculus [3]): Active; ED50 (Mus musculus [2]): 0.8 mg/kg
25 | Cc1ccc(-c2nc(N)c3cc(C(C)c4ccccc4)sc3n2)o1 (configuration not stated) | 0.0401 µM | 0.439 µM | 
26 | Cc1csc(-c2nc(N)c3cc(C4(c5ccccc5)CC4)sc3n2)n1 |  | > 0.61 µM | 
27 | Nc1nc(-c2ccccc2)nc2sccc12 | 0.5 µM |  | 
28 | CC(C)c1ccc(-c2nc(N)c3cc(Cc4ccccc4)sc3n2)o1 | 0.168 µM | 0.283 µM | 
29 | Cc1ccc(-c2nc(N)c3cc(CCc4ccccc4)sc3n2)o1 | 0.203 µM |  | 
30 | Nc1nc(C2CCCO2)nc2sc(Cc3ccccc3)cc12 (configuration not stated) | 0.683 µM | 2.95 µM | 
31 | Cc1csc(-c2nc(N)c3cc(C(C)c4ccccc4)sc3n2)n1 (configuration not stated) | 0.1 µM | 1.42 µM | 
32 | Nc1nc(-c2ccccc2)nc2sc(-c3ccccc3)cc12 | 0.207 µM | 0.237 µM | 
33 | Cc1ccc(-c2nc(N)c3ccsc3n2)o1 | 0.109 µM | 0.493 µM | 
34 | Nc1nc(-c2ncco2)nc2sc(Cc3ccccc3)cc12 | 0.0047 µM | 0.31 µM | Activity (Mus musculus [1]): inactive
35 | Cc1ccc(-c2nc(N)c3cc(Cc4ccccc4)sc3n2)o1 |  | 0.298 µM | bioavailability [4]: 5%; Cmax [5]: 2.98 µM; clearance [6]: 65 mL/min/kg; Activity (Mus musculus [3]): Active; ED50 (Mus musculus [2]): 2.2 mg/kg; clearance [7]: 69 mL/min/kg; Kp at 1 h [8]: 1.2; Activity (Mus musculus [9]): inactive; Cmax [10]: 5.01 µM; bioavailability [11]: 83%; half-life [12]: 18 min; half-life [13]: 42 min
